Key:
RGCs [1] = experiment: Pressure-induced RGC damage in isolated rat retinas (pressure controlled incubation, imaging of living RGCs); type: cell-based; settings: for signs of pressure induced RGC damage: 7×90 (7 one-minute pulses at 90 mm Hg, then 1 hour at 12 mm Hg), 30 U/ml apyrase, 300 μM oATP or 0.5 μM BBG
Description: Pressure controlled incubation: A free-standing bioreactor chamber was used for incubation of living retinas (e.g., rat retinas) in artificial cerebrospinal fluid (ACFS; Stacy et al. (2003) J. Comp. Neurol. 456:154-166) under controlled temperature (33±0.5° C.; pH 7.4±0.1), and hydrostatic pressure conditions (10-90 mm Hg, resolution 2 mm Hg; Previti, et al. (2002) IEEE-EMBS Special Topic conference on Molecular, Cellular and Tissue Engineering, 1:157-158). Rat retinas were allowed to stabilize at 12 mm Hg for 5 minutes, and 1 minute pressure increments were applied, reaching a peak value in less than 20 seconds. Consecutive pressure transients were separated by 1 minute at 12 mm Hg. Hydrostatic pressure and pH were regulated by electronically controlled air/CO2 admission in the incubator chamber.
Imaging living RGCs: Experiments were performed on Long Evans rats according to the ARVO and national regulation on animal experimentation. All chemicals were obtained from Sigma (St. Louis, Mo.) unless otherwise specified.
(§1) Adult animals were decapitated and the retinas quickly dissected, flattened onto nitrocellulose filters, and maintained in oxygenated ACSF. Individual RGCs were labeled by shooting 1.3 μm tungsten particles coated with Oregon Green 488 conjugated dextran (Molecular Probes, Inc., Eugene, Oreg.) into the retina using a gene gun (Bio-Rad Laboratories, Hercules, Calif.; Kettunen, et al. (2002) J. Neurosci. Methods 119:37-43). Individual RGCs were imaged by placing the retinas in oxygenated ACSF within a custom-made 4 ml observation chamber on the stage of a Zeiss Axioplan fluorescence microscope equipped with a black and white CCD camera (Chroma DTA, Pisa, Italy). Observations were performed at room temperature (25-28° C.). A 40× Olympus immersion objective (N.A. 0.80) was used and excitation light was kept below 10% of its maximum intensity. Less than 5 RGCs per retina were analyzed to minimize light exposure. Loss of membrane integrity was assessed by adding 1.5 μM PI to the ACSF for 1 minute. Exposure of phospatidylserine on the outer membrane leaflet was evidenced by a 20 minute incubation in ACSF containing 3 μg/ml Cy3-Annexin V. In some experiments, RGCs were preincubated with oxidized-ATP (oATP) for 2 hours or with Brilliant BlueG (BBG) for 30 minutes prior to imaging.
RGC were incubated with the following agents: 30 U/ml apyrase (an enzyme that degrades extracellular ATP; North, supra); 300 μM oATP (an irreversible blocker of P2X receptors; North, supra); or 0.5 μM BBG (a selective and reversible inhibitor of rat P2X7 receptors; North, supra).

RGCs [2] = experiment: Prevention of ATP-induced RGC damage in isolated rat retinas by P2X blockers; type: cell-based; settings: 2 hour preincubation in ACSF containing 300 μM oATP or 0.5 μM BBG
From the text: as §1, with “In some experiments, RGCs were preincubated with oxidized-ATP (oATP) for 2 hours or with Brilliant BlueG (BBG) for 30 minutes prior to imaging.” left out
Incubation of isolated rat retinas in 1 mM ATP induced the same effects obtained with repeated pressure increments, causing cell blebbing and uptake of PI in all the RGCs tested (35/35 tested) within 1 hour, except in α-type RGCs (0/15). […]

RGCs [3] = experiment: Pressure transients in vivo, PI staining of cells in the ganglion cell layer; design: species or system rat; settings: apyrase 30 U/ml intraocularly 5 minutes before pressure; 2 minutes at 50 mm Hg; retinas isolated after one hour
Description: Pressure transients in vivo: Adult Long Evans rats were deeply anaesthetized by intraperitoneal injection with Avertine (10 ml/kg body weight, 3.3% tri-bromo-ethanol, 2% tertiary amyl-alcohol in saline) and their right eyes were incannulated with a 30 Gauge needle connected to a pressure apparatus, which was a column of ACSF held at appropriate height. Eye pressure was increased to 50 mm Hg for 2 minutes by switching on the connection between the needle and the column of ACSF. A piezo-resistive pressure sensor (RS Electronics) controlled pressure values and line tightness. […] After pressure application, the animals were returned to their cages for recovery. Retinas were isolated after one hour. Control eyes were incannulated, but no pressure transient was applied. To analyze the effects of blocking eATP in vivo, 2 μl apyrase (30 U/ml intraocular concentration) were injected intraocularly 5 minutes before pressure application. To evaluate cell damage, PI labeled cells were imaged across the retinal area in 10 evenly spaced (370×250 μm^2) sample fields per retina. This dye permits assessment of membrane integrity, as cells with reduced membrane integrity are permeable to and become stained with the dyes. Retina dissection, histological and immunocytochemical treatments for long term analysis were performed as described (Galli-Resta et al. (1997) J. Neurosci. 17:7831-7838). […]

RGC light response = experiment: Extracellular electrophysiological recordings in the optic tract, RGC light response after IOP transient; type: in vivo, rat
Description: Extracellular electrophysiological recordings: Experimental procedures for extracellular electrophysiological recordings are as described (Caleo et al. (2003) J. Neurosci. 23(1):287-296.). Briefly, rats aged between P25 and P30 were anesthetized with urethane (20% solution in saline; 0.7 ml/100 g of body weight, i.p.; Sigma) and placed in a stereotaxic frame. Both eyes were fixed by means of adjustable metal rings surrounding the external portion of the eye bulb. Body temperature was continuously monitored and maintained at 37° C. by a thermostat-controlled electric blanket. […]
Experiments were conducted to determine (1) whether intraocular injection of apyrase had any deleterious effects on RGC firing activity and light response, and (2) whether intraocular injection of apyrase had any effect on RGC light response recovery following a transient IOP elevation in vivo. Multi-unit spike activity evoked by a light flash was recorded in the optic tract at five minute intervals before and after an IOP pulse at 90 mmHg for 1 minute. […] Quantifying response as the average firing rate in the interval 0-2 seconds after flash onset, the average maximal response decrement was 80±16%; N=15, and the average time needed to recover at least 85% of the initial response was 32±4 minutes after the IOP spike. […]

RGCs [4] = experiment: Application of ATP or P2X7 agonist to isolated rat retinas, RGC damage; type: cell-based
From the text: as §1
Incubation of isolated rat retinas in 1 mM ATP induced the same effects obtained with repeated pressure increments, causing cell blebbing and uptake of PI in all the RGCs tested (35/35 tested) within 1 hour, except in α-type RGCs (0/15). The same effects were obtained applying the potent P2X7 receptor agonist 2′,3′-benzoyl-4-benzoyl-ATP (BzATP; 0.1 mM; 10/10 non-α-RGCs).

[5] = two hours after ATP application

CCOc1ccc(Nc2ccc(/C(=C3C=C/C(=[N+](/CC)Cc4cccc(S(=O)(=O)[O-])c4)C=C/3C)c3ccc(N(CC)Cc4cccc(S(=O)(=O)O)c4)cc3C)cc2)cc1 [BBG, Brilliant BlueG]
signs of pressure induced RGC damage (RGCs [1]): prevented all signs of pressure induced RGC damage | ATP-induced RGC damage, damaged/tested non-α-RGCs (RGCs [2]): 0/15

apyrase
signs of pressure induced RGC damage (RGCs [1]): prevented all signs of pressure induced RGC damage | blebbing or permeability to PI when pressure applied (RGCs [1]; in the presence of apyrase 30 U/ml): no blebbing or permeability to PI was observed | pressure-induced RGC damage in vivo (PI staining) (RGCs [3]): totally prevented | spike activity before pressure application (RGC light response; apyrase 30 U/ml intraocularly): not significantly altering | average response recovery-time (at least 85% of initial response) (RGC light response; apyrase 30 U/ml intraocularly 1-3 hours before IOP pulse at 90 mmHg for 1 minute, N=8): 11.2 ± 2.6 min

Nc1ncnc2c1ncn2[C@@H]1O[C@H](COP(=O)(O)OP(=O)(O)OP(=O)(O)O)[C@@H](O)[C@H]1O [ATP, adenosine 5′-triphosphate]
cell blebbing and uptake of PI, affected/tested RGCs (RGCs [4]; 1 mM ATP, within 1 hour, RGCs other than α-type): 35/35 | cell blebbing and uptake of PI, affected/tested α-type RGCs (RGCs [4]; 1 mM ATP, within 1 hour, α-type RGCs): 0/15 | cell soma shrinkage or fragmentation, RGCs (RGCs [4]; [5]): 10/10 | phosphatidylserine exposure on the external membrane (Annexin V binding), RGCs (RGCs [4]; [5]): 7/7

Nc1ncnc2c1ncn2[C@@H]1O[C@H](COP(=O)(O)OP(=O)(O)OP(=O)(O)O)[C@@H](OC(=O)c2ccc(C(=O)c3ccccc3)cc2)[C@H]1O [BzATP, 2′,3′-benzoyl-4-benzoyl-ATP]
cell blebbing and uptake of PI, affected/tested non-α-RGCs (RGCs [4]; 0.1 mM BzATP): 10/10

Nc1ncnc2c1ncn2[C@@H](C=O)O[C@@H](C=O)COP(=O)(O)OP(=O)(O)OP(=O)(O)O [oATP, oxidized-ATP]
signs of pressure induced RGC damage (RGCs [1]): prevented all signs of pressure induced RGC damage | ATP-induced RGC damage, damaged/tested non-α-RGCs (RGCs [2]): 0/20

— US20100074884A1, “INHIBITION OF NEURONAL DAMAGE” (DUSKA SCIENTIFIC CO., priority 2005, published 2010)
